“And” between values parts separate entries of the source, which are not always exact repeats. Equal values may be shown once.
What was measured:
[1] = Photophysical properties of the complexes measured in methanol; assay type: physicochemical; conditions: for λ max: absorption; for B at λ max: brightness at λ max; for ε: molar extinction coefficient; for Φ: quantum yield
Method: (§1) The NMR (^1H, ^13C) spectra were recorded on a Bruker Avance device at a frequency of 300 MHz or 500.10 MHz, and 75 MHz or 125.75 MHz, for ^1H and ^13C respectively. Chemical shifts (δ) are expressed in parts per million (ppm) with respect to […] used as an internal standard and using the solvents indicated. The coupling constants (J) are expressed in Hz and the following notations are used: s (singlet), br (broad), d (doublet), t (triplet), dd (doublet of doublets), m (multiplet). The high-resolution mass spectra were recorded at the Lyon Common Mass Spectrometry Centre (Claude Bernard Lyon University, Lyon, France) on a MicroTOFQII instrument equipped with a positive ESI source. […] Purifications were carried out by chromatographic column on silica gel (silica gel 0.035-0.070 mm, 60 A). The solvents used for the reactions were purchased from Aldrich or Acros Organics as dry or extra dry solvents and stored on 3 Å molecular sieves and the reagents used were purchased from Aldrich, Acros Organics or Alfa Aesar. The UV/Vis absorption spectra were recorded on a JASCO V670 spectrometer; the emission spectra on a JOBIN-YVON fluorolog 3 spectrofluorimeter. Retention times were performed on an Agilent Technologies 1260 device equipped with a Waters XBridge RP-C18 column ([…], 4.6×100 mm). The chromatographic system used is 0.25 M ammonium formate-MeCN (v/v) as eluents: isocratic 15% MeCN (2 min), linear gradient 15 to 100% MeCN (16 min), isocratic 100% MeCN (4 min), at a rate of 1 mL/min, UV detection at 210 and 252 nm. Cellular imaging tests were performed using a solution concentrated in complex in DMSO to obtain a final complex concentration in the order of […] in cellular medium (PBS) with <1% DMSO. The T24 cells are prefixed to the PFA. The biphotonic absorption spectra were performed with a confocal laser scanning microscope LSM710 NLO (Carl Zeiss).
The properties of complexes Ia.1-Ia.6 and 8 were evaluated in methanol (Table 1) and water (Table 2). These properties were compared to those of complex 9, described in the document, Dalton Trans.

[2] = Photophysical properties of the complexes measured in water; assay type: physicochemical; conditions: for λ max: absorption; for B at λ max: brightness at λ max; for ε: molar extinction coefficient
Method: as §1
The properties of complexes Ia.1-Ia.6 and 8 were evaluated in methanol (Table 1) and water (Table 2). These properties were compared to those of complex 9, described in the document, Dalton Trans. 2015, 44, 4918, and of the following structure:
The spectroscopic properties of complexes Ia.2 and Ia.4 are stored in water (Table 2).

Row | decrease of the molar extinction coefficient on introduction of a second methyl group ([1]; Ia.4 compared with its counterpart Ia.2) | B at 330 nm ([1]; brightness at 330 nm, methanol) [L/mol/cm] | T ([1]; luminescence lifetime, methanol) [ms] | λ max ([2]; absorption band at 275 nm) [nm] | λ max ([2]; absorption band at 300 nm) [nm] | B at 330 nm ([2]; brightness at 330 nm) [L/mol/cm] | B at λ max ([2]; absorption band at 275 nm) [L/mol/cm] | B at λ max ([2]; absorption band at 300 nm) [L/mol/cm] | T ([2]; luminescence lifetime) [ms] | ε ([2]; absorption band at 275 nm) [L/mol/cm] | ε ([2]; absorption band at 300 nm) [L/mol/cm] | Φ ([2]; quantum yield) [%] | Structure (SMILES) | λ max ([1]; methanol) | B at λ max ([1]; methanol) | ε ([1]; methanol) | Φ ([1]; methanol) [%]
1 | more than 50% | 3400 | 1.59 | 275 | 300 | 2500 | 14000 | 7800 | 1.46 | 21000 | 11800 | 66 | COCCOCCOCCOc1cc(C)c(-c2cc(CN3CCN(Cc4cc(-c5c(C)cc(OCCOCCOCCOC)cc5C)cc(C(=O)[O-])n4)CCN(Cc4cc(-c5c(C)cc(OCCOCCOCCOC)cc5C)cc(C(=O)[O-])n4)CC3)nc(C(=O)[O-])c2)c(C)c1.[Tb+3] [Ia.4] | 302 nm and 274 nm | 8500 L/mol/cm and 12000 L/mol/cm | 13000 L/mol/cm and 19000 L/mol/cm | 65
2 |  |  |  |  |  |  |  |  |  |  |  |  | COc1ccc(-c2cc(CN3CCN(Cc4cc(-c5ccc(OC)cc5)cc(C(=O)[O-])n4)CCN(Cc4cc(-c5ccc(OC)cc5)cc(C(=O)[O-])n4)CC3)nc(C(=O)[O-])c2)cc1.[Tb+3] [complex 9, reference compound] | 308 nm | 3900 L/mol/cm | 33000 L/mol/cm | 12
